US8372967B2, “Compounds and methods for modulating expression of GCCR” (Isis Pharmaceuticals, Inc., priority 2006, dated 2013)
Strand notation (5' to 3'): a small letter for the sugar, then the base; units joined by * are phosphorothioate-linked, units joined directly phosphodiester-linked; [ ] holds rarer units or linkages, { } end groups; capitals alone tell only the bases. e = 2'-O-(2-methoxyethyl) (MOE); [5mC] = 5-methylcytosine; d = 2'-deoxy (DNA)

Columns and labels:
rat DGAT2 mRNA = assay: Dose-dependent inhibition of DGAT2 in A10 cells (Tables 82, 83); type: cell-based
Description: Additional short antisense compounds targeted to DGAT2 mRNA were tested in vitro in a dose-response experiment. A10 cells were prepared as described above and treated with 6.25, 12.5, 25.0, 50.0, 100.0, and 200.0 nM short antisense compounds to determine if DGAT2 inhibition occurs in a dose-dependent manner. […] Results are presented as percent inhibition, relative to untreated control cells.
Additional short antisense compounds targeted to DGAT2 mRNA were tested in vitro. A10 cells were prepared as described above and treated with 0.62, 1.85, 5.56, 16.67, 50.0, and 150.0 nM short antisense compounds to determine if DGAT2 inhibition occurs in a dose-dependent manner. DGAT2 mRNA was measured using quantitative real-time PCR, as described herein. […] Results are presented as percent inhibition of rat DGAT2, relative to untreated control cells.

PCSK9 mRNA = type: cell-based, human; details: Hep3B cells, 100 nM, relative to untreated control cells; for % Inhib: 0 = no reduction observed
Description: When cells reached appropriate confluency, they were treated with oligonucleotide using LIPOFECTIN® as described. […] Cells were treated and data were obtained in duplicate or triplicate. […] Cells were harvested 16-24 hours after oligonucleotide treatment.
Prior to quantitative PCR analysis, primer-probe sets specific to the target gene being measured were evaluated for their ability to be “multiplexed” with a GAPDH amplification reaction. After isolation the RNA is subjected to sequential reverse transcriptase (RT) reaction and real-time PCR, both of which are performed in the same well. RT and PCR reagents were obtained from Invitrogen Life Technologies (Carlsbad, Calif.). […] The RT reaction was carried out by incubation for 30 minutes at 48° C. Following a 10 minute incubation at 95° C. to activate the PLATIN 9M® Taq, 40 cycles of a two-step PCR protocol were carried out: 95° C. for 15 seconds (denaturation) followed by 60° C. for 1.5 minutes (annealing/extension).
170 μL of RiboGreen® working reagent (RiboGreen® reagent diluted 1:350 in 10 mM Tris-HCl, 1 mM EDTA, pH 7.5) was pipetted into a 96-well plate containing 30 μL purified cellular RNA. The plate was read in a CytoFluor® 4000 (PE Applied Biosystems) with excitation at 485 nm and emission at 530 nm.
Short antisense compounds targeted to a PCSK9 nucleic acid were tested for their effects on PCSK9 mRNA in vitro. The Isis No, gapmer motif and SEQ ID NO of each short antisense compound are shown again in Table 75. Cultured Hep3B cells were treated with 100 nM of short antisense compound. 5-10-5 MOE gapmers targeted to a PCSK9 nucleic acid were used as positive controls. After the treatment period, RNA was isolated from the cells and PCSK9 mRNA levels were measured by quantitative real-time PCR, as described herein. PCSK9 mRNA levels were adjusted according to total RNA content as measured by RIBOGREEN®. Results are presented in Table 75 as percent inhibition of PCSK9 (% Inhib), relative to untreated control cells.

Row | Substance | % Inhib (PCSK9 mRNA) | % Inhibition Range (PCSK9 mRNA) | further results
1 | 372562 (antisense eG*eT*d[5mC]*dT*dT*dG*dG*dA*dG*dG*dG*d[5mC]*e[5mC]*eG) [compound 372562] | – | – | percent inhibition of DGAT2 (rat DGAT2 mRNA; 6.25 nM (Table 82)): 0%; percent inhibition of DGAT2 (rat DGAT2 mRNA; 12.5 nM (Table 82)): 0%; percent inhibition of DGAT2 (rat DGAT2 mRNA; 50.0 nM (Table 82)): 36%; percent inhibition of DGAT2 (rat DGAT2 mRNA; 100.0 nM (Table 82)): 48%; percent inhibition of DGAT2 (rat DGAT2 mRNA; 200.0 nM (Table 82)): 75%
2 | 372568 (antisense eG*eA*d[5mC]*dA*d[5mC]*dT*dG*d[5mC]*dA*dG*dG*d[5mC]*e[5mC]*eA) [compound 372568] | – | – | percent inhibition of DGAT2 (rat DGAT2 mRNA; 6.25 nM (Table 82)): 0%; percent inhibition of DGAT2 (rat DGAT2 mRNA; 12.5 nM (Table 82)): 0%; percent inhibition of DGAT2 (rat DGAT2 mRNA; 50.0 nM (Table 82)): 26%; percent inhibition of DGAT2 (rat DGAT2 mRNA; 100.0 nM (Table 82)): 72%; percent inhibition of DGAT2 (rat DGAT2 mRNA; 200.0 nM (Table 82)): 69%
3 | 400297 (antisense eA*eT*dG*dG*dG*dG*d[5mC]*dA*dA*d[5mC]*dT*dT*e[5mC]*eA) [compound 400297] | 0% | – | –
4 | 400298 (antisense e[5mC]*eA*dT*dG*dG*dG*dG*d[5mC]*dA*dA*d[5mC]*dT*eT*e[5mC]) [compound 400298] | 0% | – | –
5 | 400299 (antisense eA*e[5mC]*dA*dT*dG*dG*dG*dG*d[5mC]*dA*dA*d[5mC]*eT*eT) [compound 400299] | 0% | – | –
6 | 400300 (antisense eG*eG*dG*dA*dT*dG*d[5mC]*dT*d[5mC]*dT*dG*dG*eG*e[5mC]) [compound 400300] | 9% | – | –
7 | 400301 (antisense e[5mC]*eG*d[5mC]*dT*d[5mC]*d[5mC]*dA*dG*dG*dT*dT*d[5mC]*e[5mC]*eA) [compound 400301] | 27% | 20-30% | –
8 | 400302 (antisense eG*eA*dT*dA*d[5mC]*dA*d[5mC]*d[5mC]*dT*d[5mC]*d[5mC]*dA*e[5mC]*e[5mC]) [compound 400302] | 0% | – | –
9 | 400303 (antisense eA*eG*dA*dT*dA*d[5mC]*dA*d[5mC]*d[5mC]*dT*d[5mC]*d[5mC]*eA*e[5mC]) [compound 400303] | 0% | – | –
10 | 400304 (antisense eG*eA*dG*dA*dT*dA*d[5mC]*dA*d[5mC]*d[5mC]*dT*d[5mC]*e[5mC]*eA) [compound 400304] | 11% | 10-20% | –
11 | 400305 (antisense eG*e[5mC]*d[5mC]*dT*dG*dT*d[5mC]*dT*dG*dT*dG*dG*eA*eA) [compound 400305] | 38% | 30-40% | –
12 | 400306 (antisense e[5mC]*eT*dG*dT*d[5mC]*dA*d[5mC]*dA*d[5mC]*dT*dT*dG*e[5mC]*eT) [compound 400306] | 40% | 40-50% | –
13 | 400310 (antisense eT*e[5mC]*d[5mC]*d[5mC]*dG*dG*d[5mC]*d[5mC]*dG*d[5mC]*dT*dG*eA*e[5mC]) [compound 400310] | 8% | – | –
14 | 400311 (antisense eA*eT*d[5mC]*d[5mC]*d[5mC]*dG*dG*d[5mC]*d[5mC]*dG*d[5mC]*dT*eG*eA) [compound 400311] | 18% | 10-20% | –
15 | 400312 (antisense e[5mC]*eA*dT*d[5mC]*d[5mC]*d[5mC]*dG*dG*d[5mC]*d[5mC]*dG*d[5mC]*eT*eG) [compound 400312] | 28% | 20-30% | –
16 | 400313 (antisense eG*e[5mC]*dA*dT*d[5mC]*d[5mC]*d[5mC]*dG*dG*d[5mC]*d[5mC]*dG*e[5mC]*eT) [compound 400313] | 10% | 10-20% | –
17 | 400314 (antisense eG*eT*dG*d[5mC]*d[5mC]*d[5mC]*dT*dT*d[5mC]*d[5mC]*d[5mC]*dT*eT*eG) [compound 400314] | 26% | 20-30% | –
18 | 400315 (antisense eA*eT*dG*dA*dG*dG*dG*dT*dG*d[5mC]*d[5mC]*dG*e[5mC]*eT) [compound 400315] | 0% | – | –
19 | 400316 (antisense eT*eA*dT*dG*dA*dG*dG*dG*dT*dG*d[5mC]*d[5mC]*eG*e[5mC]) [compound 400316] | 8% | – | –
20 | 400317 (antisense e[5mC]*eT*dA*dT*dG*dA*dG*dG*dG*dT*dG*d[5mC]*e[5mC]*eG) [compound 400317] | 7% | – | –
